{
  "source": "patent US20120172340A1",
  "about": "“Compositions and Methods for Selectively Activating Human Sirtuins” (BIOMOL International L.P., priority 2004, published 2012)",
  "key": {"human SIRT1": {"target": "T1, human SIRT1 (Homo sapiens, UniProt Q96EB6)", "T1 construct": "made in house; host or cells: E. coli", "T1 sequence (Q96EB6 1-747)": "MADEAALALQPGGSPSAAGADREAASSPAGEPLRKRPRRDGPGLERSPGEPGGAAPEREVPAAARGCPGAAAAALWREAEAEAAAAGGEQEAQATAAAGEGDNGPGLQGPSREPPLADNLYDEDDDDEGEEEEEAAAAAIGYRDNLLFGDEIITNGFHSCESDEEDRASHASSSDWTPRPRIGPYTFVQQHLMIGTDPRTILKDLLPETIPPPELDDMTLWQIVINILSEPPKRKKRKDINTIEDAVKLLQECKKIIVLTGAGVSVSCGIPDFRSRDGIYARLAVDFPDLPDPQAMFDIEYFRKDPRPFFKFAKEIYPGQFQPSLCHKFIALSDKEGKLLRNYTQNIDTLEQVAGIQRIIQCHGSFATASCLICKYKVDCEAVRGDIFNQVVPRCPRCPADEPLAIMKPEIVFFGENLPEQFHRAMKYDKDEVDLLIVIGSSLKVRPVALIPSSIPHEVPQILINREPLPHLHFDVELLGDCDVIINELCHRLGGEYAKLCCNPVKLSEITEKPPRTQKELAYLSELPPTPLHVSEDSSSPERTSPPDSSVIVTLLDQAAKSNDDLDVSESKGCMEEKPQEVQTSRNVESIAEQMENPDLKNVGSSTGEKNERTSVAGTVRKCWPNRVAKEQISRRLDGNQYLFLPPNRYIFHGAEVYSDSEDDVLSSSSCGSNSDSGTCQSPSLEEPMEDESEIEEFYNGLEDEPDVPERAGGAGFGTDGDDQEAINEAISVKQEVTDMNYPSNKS", "assay": "SIRT1 rate measurement, fluorogenic p53-382 peptide deacetylation", "assay_type": "biochemical"}, "SIRT5Δ1-39": {"target": "T2, SIRT5Δ1-39 (Homo sapiens, UniProt Q9NXA8)", "T2 construct": "in which the first 39 residues were deleted (SIRT5Δ1-39); made in house", "T2 sequence (Q9NXA8 40-310)": "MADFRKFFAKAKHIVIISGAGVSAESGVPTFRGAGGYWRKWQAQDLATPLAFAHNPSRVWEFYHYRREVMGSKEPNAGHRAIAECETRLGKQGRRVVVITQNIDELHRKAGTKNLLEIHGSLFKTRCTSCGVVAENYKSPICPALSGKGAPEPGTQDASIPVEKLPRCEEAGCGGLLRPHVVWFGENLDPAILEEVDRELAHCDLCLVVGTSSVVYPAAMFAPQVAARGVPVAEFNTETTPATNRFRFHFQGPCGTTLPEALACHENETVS", "assay": "Deacetylation activity of N-terminally truncated SIRT5", "assay_type": "biochemical", "conditions": "500 μM resveratrol; 1 mM p53-382 peptide, 12 mM NAD+; compared with full-length SIRT5"}, "dSir2": {"target": "T3, dSir2 (Drosophila melanogaster, UniProt Q9VK34, DEL53-54/DUP289-290/L518H/P746H/V753F)", "T3 construct": "made in house; host or cells: E. coli", "T3 sequence (Q9VK34 other isoform, or with tags, fused parts or gaps DEL53-54/DUP289-290/L518H/P746H/V753F)": "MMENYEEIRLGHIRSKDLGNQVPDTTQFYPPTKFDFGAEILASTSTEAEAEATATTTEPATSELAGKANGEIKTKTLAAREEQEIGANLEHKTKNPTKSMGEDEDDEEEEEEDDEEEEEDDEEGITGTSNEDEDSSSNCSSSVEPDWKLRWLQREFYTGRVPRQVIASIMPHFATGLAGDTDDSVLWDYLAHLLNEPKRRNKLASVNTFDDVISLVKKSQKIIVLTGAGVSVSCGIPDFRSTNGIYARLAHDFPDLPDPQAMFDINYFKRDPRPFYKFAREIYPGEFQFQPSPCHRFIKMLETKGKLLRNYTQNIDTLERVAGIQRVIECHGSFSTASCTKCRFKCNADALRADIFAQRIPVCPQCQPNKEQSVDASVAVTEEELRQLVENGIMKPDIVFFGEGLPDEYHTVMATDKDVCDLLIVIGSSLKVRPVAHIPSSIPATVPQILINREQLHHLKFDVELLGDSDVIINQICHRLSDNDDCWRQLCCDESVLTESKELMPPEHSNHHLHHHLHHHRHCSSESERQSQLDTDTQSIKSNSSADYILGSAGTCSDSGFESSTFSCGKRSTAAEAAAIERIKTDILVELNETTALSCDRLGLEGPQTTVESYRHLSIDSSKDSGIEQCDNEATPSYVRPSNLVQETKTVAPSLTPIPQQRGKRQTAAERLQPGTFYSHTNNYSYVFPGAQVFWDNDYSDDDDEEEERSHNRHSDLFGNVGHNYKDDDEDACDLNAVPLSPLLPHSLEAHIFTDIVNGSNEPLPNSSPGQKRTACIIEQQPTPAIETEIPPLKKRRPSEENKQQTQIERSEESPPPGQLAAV", "assay": "Resveratrol dose-response, fluorogenic deacetylation, dSir2", "assay_type": "biochemical, D. melanogaster", "conditions": "25° C., 50 μM NAD+, 50 μM Fluor de Lys acetylated lysine substrate; FIG. 1"}, "ySir2": {"target": "T4, ySir2 (Saccharomyces cerevisiae, UniProt P06700)", "T4 construct": "made in house; host or cells: E. coli", "assay": "Resveratrol dose-response, fluorogenic deacetylation, ySir2", "assay_type": "biochemical, S. cerevisiae (budding yeast)", "conditions": "30° C., 200 μM NAD+, 200 μM p53-382; FIG. 1"}, "human SIRT3": {"target": "T5, human SIRT3 (Homo sapiens, UniProt Q9NTG7)", "T5 construct": "made in house; host or cells: E. coli", "T5 sequence (Q9NTG7 1-399)": "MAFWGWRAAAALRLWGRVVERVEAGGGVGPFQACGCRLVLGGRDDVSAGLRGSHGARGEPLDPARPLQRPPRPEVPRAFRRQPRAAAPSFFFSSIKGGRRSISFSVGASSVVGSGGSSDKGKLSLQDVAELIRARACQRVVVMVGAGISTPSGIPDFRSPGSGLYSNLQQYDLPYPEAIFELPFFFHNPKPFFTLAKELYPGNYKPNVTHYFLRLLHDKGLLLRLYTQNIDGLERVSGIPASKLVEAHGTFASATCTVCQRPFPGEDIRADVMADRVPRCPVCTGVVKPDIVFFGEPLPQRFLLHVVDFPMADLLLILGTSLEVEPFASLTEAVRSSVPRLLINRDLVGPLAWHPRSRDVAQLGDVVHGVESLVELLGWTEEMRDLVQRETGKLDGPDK", "assay": "Resveratrol dose-response, fluorogenic deacetylation, SIRT3", "assay_type": "biochemical", "conditions": "37° C., 25 μM NAD+, 25 μM p53-320; FIG. 1"}, "E230K mutant SIRT1": {"target": "T6, E230K mutant SIRT1 (Homo sapiens, UniProt Q96EB6, E230K)", "T6 construct": "made in house; host or cells: E. coli", "T6 sequence (Q96EB6 1-747 E230K)": "T1 sequence (Q96EB6 1-747) with E230K", "assay": "Resveratrol dose-response, fluorogenic deacetylation, E230K mutant SIRT1", "assay_type": "biochemical", "conditions": "37° C., 25 μM NAD+, 25 μM p53-382; FIG. 1A"}, "human SIRT5": {"target": "T7, human SIRT5 (Homo sapiens, UniProt Q9NXA8)", "T7 sequence (Q9NXA8 37-310)": "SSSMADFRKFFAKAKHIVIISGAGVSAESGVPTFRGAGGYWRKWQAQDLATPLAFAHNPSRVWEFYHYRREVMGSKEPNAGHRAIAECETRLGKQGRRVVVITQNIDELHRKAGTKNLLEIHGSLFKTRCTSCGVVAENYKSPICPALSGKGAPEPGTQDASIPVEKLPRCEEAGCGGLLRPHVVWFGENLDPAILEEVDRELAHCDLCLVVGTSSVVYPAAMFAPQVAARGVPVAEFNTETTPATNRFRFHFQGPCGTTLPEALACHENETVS", "conditions": "500 μM resveratrol; saturating NAD+ (12 mM)"}},
  "note": "Changes are numbered by the printed parent chain.",
  "data": [
    {"compound": "Oc1ccc(/C=C/c2cc(O)cc(O)c2)cc1", "note": "[Resveratrol, 3,5,4′-Trihydroxy-trans-stilbene]", "values": [
      {"measurement": "resveratrol-dependent rate increase, human SIRT1", "setting": "human SIRT1; 37° C., 25 μM NAD+, 25 μM p53-382, FIG. 1", "value": "rate increases are seen"},
      {"measurement": "resveratrol concentration at which maximum rate stimulation occurred, SIRT1", "setting": "human SIRT1; FIG. 1A", "value": "> 100", "unit": "µM"},
      {"measurement": "stimulation of SIRT5Δ1-39 deacetylation activity", "setting": "SIRT5Δ1-39", "value": "similarly stimulated"},
      {"measurement": "resveratrol-dependent rate increase, dSir2", "setting": "dSir2", "value": "rate increases are seen"},
      {"measurement": "resveratrol-dependent rate increase, ySir2", "setting": "ySir2", "value": "rate increases are seen"},
      {"measurement": "resveratrol-dependent rate increase, human SIRT3", "setting": "human SIRT3", "value": "not"},
      {"measurement": "resveratrol activation of E230K mutant SIRT1", "setting": "E230K mutant SIRT1", "value": "diminished resveratrol activation"},
      {"measurement": "lowering of the Km for the p53-382 peptide", "setting": "human SIRT5", "value": "more than ten-fold"}
    ]}
  ]
}
